The source made the active and inactive calls. No rule for the calls is given here.

In the test the target is Ubiquitin carboxyl-terminal hydrolase 10 (Homo sapiens) (UniProt Q14694). Put plainly: primary hit verification, biochemical, ubiquitin-specific protease 10 deubiquitylase inhibitors, concentration-effect titration (AID 1645863).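 Also: potency values describe inhibition of USP10 cleavage of a fluorogenic ubiquitin substrate.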 Conditions: USP10 deubiquitinase enzymatic assay.
Chain of Ubiquitin carboxyl-terminal hydrolase 10 (Homo sapiens) (Q14694 whole entry, looked up): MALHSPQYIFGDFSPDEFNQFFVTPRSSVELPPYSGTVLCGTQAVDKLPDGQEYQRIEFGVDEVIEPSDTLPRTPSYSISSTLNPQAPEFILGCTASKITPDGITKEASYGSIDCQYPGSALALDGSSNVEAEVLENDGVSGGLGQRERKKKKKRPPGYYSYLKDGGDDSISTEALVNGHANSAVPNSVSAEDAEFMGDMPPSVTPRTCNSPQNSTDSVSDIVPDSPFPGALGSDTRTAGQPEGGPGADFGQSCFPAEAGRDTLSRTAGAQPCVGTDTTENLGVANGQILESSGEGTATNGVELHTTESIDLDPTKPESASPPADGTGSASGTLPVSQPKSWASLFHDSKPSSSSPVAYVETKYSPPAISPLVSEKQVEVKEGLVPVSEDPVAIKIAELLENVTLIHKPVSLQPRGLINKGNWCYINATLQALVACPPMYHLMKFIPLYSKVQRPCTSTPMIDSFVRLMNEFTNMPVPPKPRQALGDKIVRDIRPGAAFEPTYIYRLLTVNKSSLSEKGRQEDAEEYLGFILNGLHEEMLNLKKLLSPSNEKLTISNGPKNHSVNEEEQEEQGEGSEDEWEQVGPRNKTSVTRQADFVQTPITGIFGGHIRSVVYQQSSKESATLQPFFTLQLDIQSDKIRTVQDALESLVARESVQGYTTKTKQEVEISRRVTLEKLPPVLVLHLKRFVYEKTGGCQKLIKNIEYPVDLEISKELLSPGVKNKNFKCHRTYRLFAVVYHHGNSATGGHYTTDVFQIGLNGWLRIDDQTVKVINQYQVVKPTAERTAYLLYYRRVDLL
Take `CC(Nc1nnc(Cc2ccccc2)c(=O)[nH]1)c1ccccc1` (stereo not given): the IC50 (commonly the midpoint of a concentration-inhibition curve) was > 40 µM (inactive).
Turning to `CC(=O)NS(=O)(=O)c1ccc(NC(=O)/C=C/c2cn(-c3ccccc3)nc2-c2ccccc2)cc1`, the half-maximal inhibitory concentration (IC50) is 18.8 µM.
The same measure for `Cc1cccc(C(=O)Nc2cccc(SC(C(=O)Nc3ccc(O)c(C(=O)O)c3)c3ccccc3)c2)c1` (stereo not given): > 40 µM (inactive).
In the case of `COc1ccccc1CNC(=O)C1c2ccccc2C(=O)N1Cc1ccccc1C` (stereo not given), the IC50 is > 40 µM (inactive).
As for `Cc1cc(C(=O)Nc2cc([N+](=O)[O-])cc3oc(-c4ccccc4)cc23)on1`, the IC50 is > 40 µM (inactive).
With `Cc1cc(Nc2ccc(C(=O)NCc3ccco3)cc2)n2nc(-c3cccnc3)nc2n1`, the IC50 was > 40 µM (inactive).
For `O=C(CCc1ccc(S(=O)(=O)N2CCOCC2)cc1)OCC(=O)c1ccc(-c2ccccc2)cc1`, the half-inhibitory concentration (IC50) is 38.8 µM.
Take `O=C(Cn1nnc2ccccc21)Nc1nc(-c2ccc3c(c2)CCN3C(=O)c2ccccc2F)cs1`: the IC50 was 34.9 µM.
For the molecule `Cc1cc(NS(=O)(=O)c2ccc(NC(=O)c3ccc(N4CCCC4)c([N+](=O)[O-])c3)cc2)no1`, the IC50 is 34.8 µM.
With `COc1ccc(CCC(=O)Nc2nnc(C3CC(=O)N(c4ccc(C)cc4)C3)s2)cc1` (stereo not given), the 50% inhibitory concentration (IC50) was 13.6 µM.
With `CCOC(=O)C1CCN(C(=O)c2ccc3c(c2)NC(=O)C2CCCN32)CC1` (stereo not given) the figure was > 40 µM (inactive); with `COc1ccc(C(=O)Nc2nc(-c3ccc4c(c3)NC(=O)CO4)c(C)s2)cc1OC`, > 40 µM (inactive); with `O=C(CSc1nc2ccccc2[nH]1)Nc1cccc2c1OCCO2`, > 40 µM (inactive).
In the case of `COc1cccc(C2c3[nH]c4ccccc4c3C[C@@H]3C(=O)N(CC(O)c4ccccc4)CC(=O)N23)c1` (stereo not given in full), the IC50 was > 40 µM (inactive).
Turning to `COc1cc(NC(=O)c2ccc3c(c2)OCO3)ccc1-c1cc2ccccc2oc1=O`, the IC50 is > 40 µM (inactive).
The same measure for `COc1ccc(Nc2nc3c(S(=O)(=O)c4ccc(C)cc4)nnn3c3ccsc23)c(OC)c1`: 10.5 µM.
`Nc1c(-c2nc(-c3ccccc3Cl)no2)nnn1-c1ccc(Cl)cc1`: the IC50 was 11.5 µM.
With `O=C(/C=C/c1ccc(Br)cc1)Nc1cnc2ccccc2c1`, the IC50 is 39.5 µM.
With `Cc1cc(=O)n(C)c2c(O)c3c(cc12)c(C)cc(=O)n3C`, the IC50 is > 40 µM (inactive).
Take `COC(=O)c1ccc(N2CCN(C(C)=O)CC2)c(NC(=O)COc2ccc([N+](=O)[O-])cc2)c1`: the half-maximal inhibitory concentration (IC50) was 25.1 µM.
On to `O=C1NC(=O)/C(=C/c2ccc(OC(=O)c3ccc(Cl)cc3Cl)cc2)N1`, for which the IC50 was 22.1 µM.
In the case of `O=C(Nc1cc(S(=O)(=O)Nc2ccc(Cl)cc2)ccc1O)c1cc2c(s1)CCC2`, the IC50 is 10.3 µM.
In the case of `N#Cc1ccccc1NC(=O)c1cc2c(s1)-c1ccccc1S(=O)(=O)C2`, the IC50 was 34.6 µM.
In the case of `COc1ccccc1-c1noc(CCCC(=O)Nc2ccccc2)n1`, the IC50 is > 40 µM (inactive).
Turning to `CC(=O)c1cccc(NC(=O)COC(=O)c2sc3cc(F)ccc3c2Cl)c1`, the IC50 was > 40 µM (inactive).
For `O=C(CSc1nc(=O)n(Cc2ccncc2)c2c1CCC2)NCCc1ccccc1`, the IC50 is > 40 µM (inactive).
The same measure for `COCCCNC(=O)c1ccc(Cn2c(=O)c3ccccc3n(CC(=O)Nc3ccc(OC)cc3)c2=O)cc1`: > 40 µM (inactive); for `COc1ccc(C2/C(=C(\O)c3ccccc3)C(=O)C(=O)N2c2nc3ccc(F)cc3s2)cc1` (stereo not given): 8.94 µM; for `Cc1ccc(NC(=O)CSc2nnc(-c3n[nH]c4c3CCC4)n2N)cc1C`: 26 µM.
On to `Cc1ccc(C(=O)NCc2ccc(C(=O)Nc3ccc(Cl)cc3)o2)cc1`, for which the IC50 is > 40 µM (inactive).
Consider `CCCCCCCCCC(CCCCCCCCCC(=O)O)O[C@H]1O[C@@H](COC(C)=O)[C@H](O)[C@@H](OC(=O)CC(=O)O)[C@H]1O` (stereo not given in full), for which the half-maximal inhibitory concentration (IC50) was 30.6 µM.
In the case of `CC(C)[C@H]1CC[C@@]2(CO2)[C@H]2C(=O)OCC(C(=O)O)=C[C@H]12`, the IC50 was 21.7 µM.
The same measure for `CSc1ccc(CNC(=O)Cn2c(=O)[nH]c3c(-c4ccccc4)c[nH]c3c2=O)cc1`: > 40 µM (inactive); for `CC[C@@H](C(=O)[C@@H](C)[C@@H](O)[C@H](C)CCc1ccc(C)c(O)c1C(=O)O)[C@@H]1O[C@](CC)([C@H]2CC[C@](O)(CC)[C@H](C)O2)C[C@@H]1C`: 12.4 µM; for `CNc1ccc(-c2noc([C@@H]3CCCN3Cc3cccc(C#N)c3)n2)cn1`: > 40 µM (inactive).
Turning to `O=C1C(=O)N(c2nc3ccc(F)cc3s2)C(c2ccc(F)cc2)/C1=C(\O)c1ccc(F)cc1` (stereo not given), the 50% inhibitory concentration (IC50) was 11.5 µM.
For the molecule `COc1ccc(-c2ccc3cc(C(=O)O)ccc3c2)cc1C12CC3CC(CC(C3)C1)C2`, the IC50 was 5.77 µM.
On to `Cc1ccc(Cn2c(=O)c3ncccc3n(CC(=O)NCc3ccc(F)cc3)c2=O)cc1`, for which the half-maximal inhibitory concentration (IC50) is 26.1 µM.
`O=C(CSc1ccc2nnc(-c3ccc(Cl)cc3)n2n1)N1CCCCC1`: the IC50 was > 40 µM (inactive).
`CC(NC(=O)c1ccccc1)c1nc2ccccc2n1CC(=O)Nc1ccc(OC(F)(F)F)cc1` (stereo not given): the IC50 was 37.9 µM.
The same measure for `COc1ccc(NC(=O)Cn2c(=O)n(-c3ccc(CC(=O)NCc4ccco4)cc3)c(=O)c3ccccc32)cc1Cl`: 15.1 µM; for `O=C(Nc1nc(-c2ccccc2)ns1)c1ccc2ncsc2c1`: 31.6 µM.
For `COc1cc(OC)c2c(c1)C(=O)C1=C(COC(C)(O)C1)C2=O` (stereo not given), the IC50 was > 40 µM (inactive).
Turning to `O=C(c1ccc2occc2c1)N1CCC(S(=O)(=O)c2ccc(-c3ccco3)cc2)CC1`, the IC50 was > 40 µM (inactive).
As for `COc1ccc(C(=O)COC(=O)c2cccc(NC(=O)c3ccc(Cl)cc3)c2)cc1`, the IC50 was > 40 µM (inactive).
Turning to `Cc1ccc(C2c3[nH]c4ccccc4c3C[C@H]3C(=O)N(c4ccc(C(=O)NCCc5ccccc5)cc4)C(=O)N23)cc1` (stereo not given in full), the IC50 is > 40 µM (inactive).
With `CCc1ccccc1NC(=O)Cn1c(SCc2ccc(F)cc2)nc2cccnc21` the figure was 25 µM; with `Cc1ccccc1NC(=O)Cn1ccc2ccn(Cc3ccccc3)c2c1=O`, > 40 µM (inactive).
In the case of `Cc1nc2nc(C(c3ccccc3)c3ccccc3)[nH]n2c(=O)c1Cc1ccccc1`, the IC50 was > 40 µM (inactive).
On to `Cc1ccc(Nc2nc(Nc3cccc(F)c3)nc3nccnc23)c(C)c1`, for which the IC50 was > 40 µM (inactive).
For the molecule `CCCN1CCN(C(=O)Cn2c(C)ccc(NC(=O)c3ccccc3)c2=O)CC1`, the IC50 is > 40 µM (inactive).
With `COc1ccc(-c2c(NC(=O)C3COc4ccccc4O3)n[nH]c2C)cc1OC` (stereo not given), the IC50 was > 40 µM (inactive).
Consider `Cc1ccc(C(=O)NC(C)c2ccccc2)cc1NC(=O)c1nsc2ccccc12` (stereo not given), for which the concentration for half-maximal inhibition (IC50) is 27.9 µM.
As to `COc1ccc(CCNC(=O)Cn2c(=O)c3sccc3n(Cc3cccc([N+](=O)[O-])c3)c2=O)cc1OC`, the IC50 was 16 µM.
With `Cc1nc(N2CCCC2)ncc1-c1cc(=O)[nH]c(Nc2ccc(Cl)cc2Cl)n1` the figure was 12.2 µM; with `COc1ccccc1C(=O)N1CCC[C@H](Cn2nnc(-c3cccnc3)n2)C1`, > 40 µM (inactive); with `O=S1(=O)CCN(Cc2c(F)cccc2F)c2c(F)nc(N3CCOCC3)c(F)c21`, > 40 µM (inactive).
As for `COC(=O)c1ccc2c(=O)n(-c3ccc(C)c(F)c3)c(N3CCC(C(N)=O)CC3)nc2c1`, the IC50 is > 40 µM (inactive).
As to `COc1ccc([N+](=O)[O-])cc1NC(=O)COC(=O)c1ccc2[nH]c3c(c2c1)CCCC3`, the IC50 was 18.3 µM.
As for `COc1cccc(NC(=O)Cn2cc(C(=O)c3ccc(C)cc3)c(=O)c3cc(Cl)ccc32)c1`, the IC50 was 11.2 µM.
For `O=C1CSC(c2ccc(F)cc2)c2c(n(C3CCCCCC3)[nH]c2=O)N1` (stereo not given), the IC50 is 32.4 µM.
As to `O=C(NCc1ccco1)c1ccc(Cn2c(SCc3ccccc3)nc3ccncc32)cc1`, the IC50 was > 40 µM (inactive).
As for `CC(=O)Nc1ccc(C(=O)/C=C2\NCCc3cc4c(cc32)OCCCO4)cc1`, the IC50 was > 40 µM (inactive).
In the case of `COc1cc2c(c(OC)c1OC)-c1ccc(NCCc3cccc(F)c3)c(=O)cc1[C@@H](NC(C)=O)CC2`, the IC50 was > 40 µM (inactive).
With `COc1ccc(N2CC(c3nnc(NC(=O)CCc4ccccc4)s3)CC2=O)cc1` (stereo not given) the figure was > 40 µM (inactive); with `CCOc1ccccc1NC(=O)Cn1c(=O)n(CCCC(=O)NCc2ccc(C)cc2)c(=O)c2sccc21`, > 40 µM (inactive).
As to `CCOc1ccc(Oc2nc(CN3CCCC3)nc3sc(C)c(C)c23)cc1`, the IC50 was > 40 µM (inactive).
Take `Cn1nc(C(=O)N2CCC(c3ccccc3)C2)c2c1-c1ccsc1CC2` (stereo not given): the IC50 is > 40 µM (inactive).
As for `O=C(Oc1ccc2cc(Br)ccc2c1)c1ccncc1`, the IC50 is > 40 µM (inactive).
As for `Cc1ccc(C)c(NC(=O)Cn2cc(C(=O)C3CC3)c3ccccc32)c1`, the IC50 was 15.4 µM.
`CC(C)=CCOC(C)(C)[C@H]1OC2CC[C@@]3(C)C(CCC4Cc5c([nH]c6ccccc56)[C@@]43C)C23OC3[C@@H]1O` (stereo not given in full): the IC50 was 10.6 µM.
As for `COc1ccc(S(=O)(=O)N2CCc3ccccc32)cc1C(=O)Nc1ccc2c(c1)NC(=O)C(C)O2` (stereo not given), the IC50 is > 40 µM (inactive).
For `O=C(COC(=O)c1cccc([N+](=O)[O-])c1)Nc1cccc(Oc2ccccc2)c1`, the IC50 was > 40 µM (inactive).
Turning to `CCCCCCCC1OC(=O)Cc2cc(O)c(O)c(O)c21` (stereo not given), the 50% inhibitory concentration (IC50) was 3.3 µM.
`O=C(CSc1nc2c(cnn2-c2ccccc2)c(=O)[nH]1)Nc1ccc(Cl)cc1F`: the IC50 was > 40 µM (inactive).
Consider `Cn1cc(C(=O)Nc2ccccc2)c2[nH]c(=O)n(Cc3ccccc3)c(=O)c21`, for which the IC50 is > 40 µM (inactive).
With `Cc1cc(C(F)(F)F)n2nc(C3CCN(C(=O)c4cnn(C)c4C)C3)cc2n1` (stereo not given), the IC50 was > 40 µM (inactive).
On to `Cc1ccc(NC(=O)Nc2ccc(C)n(CC(=O)Nc3cccc(C)c3)c2=O)cc1`, for which the IC50 was > 40 µM (inactive).
Turning to `C/C(=C\Cc1c(O)cc(C)c(C=O)c1O)CC[C@@]1(C)[C@H](C)CCC(=O)[C@@H]1C`, the IC50 is > 40 µM (inactive).
Regarding `O=c1[nH]c(C2CCN(S(=O)(=O)c3ccc(S(=O)(=O)NC4CCCC4)cc3)CC2)nc2c1nnn2Cc1cccc(Cl)c1`, the half-inhibitory concentration (IC50) was 13.2 µM.

The record behind these values is PubChem BioAssay AID1645863 (Buhrlage Lab, Dana-Farber Cancer Institute and Novartis …, 2021).
